Assay [1] relates to Abeta 1-42 produced and secreted by human neuroblastoma SKNBE2 cells expressing wild type hAPP695. The assay can be described thus: Cellular αLisa assay in SKNBE2 cells, Abeta 1-42. The settings on record: 18 hours incubation, read-out: Cellular αLisa assay in SKNBE2 cells Abeta 42 pIC50 (converted). The assay is classed as cell-based. The method, then: In two αLisa assays the levels of Abeta total and Abeta 1-42 produced and secreted into the medium of human neuroblastoma SKNBE2 cells are quantified. The assay is based on the human neuroblastoma SKNBE2 expressing the wild type Amyloid Precursor Protein (hAPP695). The compounds are diluted and added to these cells, incubated for 18 hours and then measurements of Abeta 1-42 and Abeta total are taken. Abeta total and Abeta 1-42 are measured by sandwich αLisa. αLisa is a sandwich assay using biotinylated antibody AbN/25 attached to streptavidin coated beads and antibody Ab4G8 or cAb42/26 conjugated acceptor beads for the detection of Abeta total and Abeta 1-42 respectively. In the presence of Abeta total or Abeta 1-42, the beads come into close proximity. The excitation of the donor beads provokes the release of singlet oxygen molecules that trigger a cascade of energy transfer in the acceptor beads, resulting in light emission. Light emission is measured after 1 hour incubation (excitation at […] and emission at 615 nm).
(§1) A best-fit curve is fitted by a minimum sum of squares method to the plot of % Controlmin versus compound concentration. From this an IC50 value (inhibitory concentration causing 50% inhibition of activity) can be obtained.

Assay [2] concerns the target T1, recombinant BACE2 protein (Homo sapiens, UniProt Q9Y5Z0).
T1 sequence (Q9Y5Z0 63-518): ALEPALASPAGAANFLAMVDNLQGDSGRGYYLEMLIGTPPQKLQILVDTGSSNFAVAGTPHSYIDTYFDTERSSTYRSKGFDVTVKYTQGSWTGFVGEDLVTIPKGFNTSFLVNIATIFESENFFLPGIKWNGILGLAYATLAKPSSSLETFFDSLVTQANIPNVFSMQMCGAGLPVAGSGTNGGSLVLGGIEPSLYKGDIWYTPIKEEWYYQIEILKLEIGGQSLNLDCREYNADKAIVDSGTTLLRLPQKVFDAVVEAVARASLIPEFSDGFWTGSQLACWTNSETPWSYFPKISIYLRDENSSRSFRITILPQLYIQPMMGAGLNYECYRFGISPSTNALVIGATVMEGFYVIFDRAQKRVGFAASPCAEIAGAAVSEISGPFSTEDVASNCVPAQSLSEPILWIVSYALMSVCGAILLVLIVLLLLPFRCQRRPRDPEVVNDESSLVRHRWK
As to the kind of experiment: BACE2 biochemical FRET based assay. The settings on record: 450 min at room temperature, 10 μM substrate, pH 5.0.
Excerpt: (§2) This assay is a Fluorescence Resonance Energy Transfer Assay (FRET) based assay. The substrate for this assay contains the ‘Swedish’ Lys-Met/Asn-Leu mutation of the amyloid precursor protein (APP) beta-secretase cleavage site. This substrate also contains two fluorophores: (7-methoxycoumarin-4-yl) acetic acid (Mca) is a fluorescent donor with excitation wavelength at 320 nm and emission at 405 nm and 2,4-Dinitrophenyl (Dnp) is a proprietary quencher acceptor. […] Upon cleavage by the beta-secretase, the fluorophore Mca is separated from the quenching group Dnp, restoring the full fluorescence yield of the donor. The increase in fluorescence is linearly related to the rate of proteolysis.
Briefly in a 384-well format recombinant BACE2 protein in a final concentration of 0.4 μg/ml is incubated for 450 minutes at room temperature with 10 μM substrate in incubation buffer (50 mM Citrate buffer pH 5.0, 0.05% PEG, no DMSO) in the absence or presence of compound. Next the amount of proteolysis is directly measured by fluorescence measurement at T=0 and T=450 (excitation at 320 nm and emission at 405 nm). Results are expressed in RFU (Relative Fluorescence Units), as difference between T450 and TO.
as §1

The target in assay [3] is recombinant BACE1 protein (Homo sapiens, UniProt P56817). As to the kind of experiment: BACE1 biochemical FRET based assay. To be noted: 450 min at room temperature, 20 μM substrate, pH 5.0.
Excerpt: as §2, with “this assay is an APP derived 13 amino acids peptide that contains the” for “this assay contains the”, “cleavage by BACE1, the fluorophore” for “cleavage by the beta-secretase, the fluorophore”
Briefly in a 384-well format recombinant BACE1 protein in a final concentration of 0.04 μg/ml is incubated for 450 minutes at room temperature with 20 μM substrate in incubation buffer (50 mM Citrate buffer pH 5.0, 0.05% PEG) in the presence of compound or DMSO. Next the amount of proteolysis is directly measured by fluorescence measurement (excitation at 320 nm and emission at 405 nm) at different incubation times (0, 30, 60, 90, 120 and 450 min). For every experiment a time curve (every 30 min between 0 min and 120 min) is used to determine the time where we find the lowest basal signal of the high control. The signal at this time (Tx) is used to subtract from the signal at 450 min. Results are expressed in RFU, as difference between T450 and Tx.
as §1

The target of the next assay is β-secretase I (BACE1) (Homo sapiens, UniProt P56817). The assay can be described thus: Automated (CyclOps) biochemical assay BACE1. To be noted: 37 °C, 60 min, pH 5.0; read-out: Automated assay BACE1 pIC50 (converted). The method, then: (§3) Unless otherwise indicated all biochemicals were purchased from Sigma-Aldrich Chemical Company, Poole, Dorset, U.K. and non-aqueous solvents, of analytical or higher grade, were purchased from ThermoFisher Scientific, Loughborough, U.K. MilliQ water (Elix 5 & MilliQ Gradient; Merck Millipore) was used as the base aqueous solvent to make up the biological buffers. Base assay buffer was prepared by adding a 50 mM solution of citric acid (1.00244; Merck Biosciences) to stirring solution of 50 mM trisodium citrate (1.06448; Merck Biosciences) until a final pH of 5.0 was achieved. […] All assays were routinely carried out in 384-well assay plates (Costar 4514; Corning Life Sciences) and incubated at 37±1° C. for 60 min. prior to reading the endpoint fluorescence intensity. The (7-methoxyl coumarin-4-yl)acetic acid based substrate 0-secretase substrate VI (M2465; Bachem) was prepared as a 1 mM stock in 100% DMSO (D/4121/PB08; ThermoFisher). Assay buffer was prepared by adding DMSO to base buffer to a final concentration of 1% (vol./vol.). β-secretase I (18.64 μM; “BACE1”) and β-secretase II (4.65 μM; “BACE2”) were obtained from Janssen Pharmaceutica, Beerse, Belgium and were stored as frozen aliquots (˜20 μl) and thawed as required.
(§4) The CyclOps bioassay module consisted of a fraction collection station, a reagent station, liquid handling robotics, plate store and an integrated plate reader (SpectraMAX Paradigm, TUNE cartridge, SoftMax Pro v 6.3; Molecular Devices). The fraction collection station composed of a 384 well collection plate (P-384-240SQ-C; Axygen, Union City, Calif., USA) mounted on a H-portal carriage (Festo AG & Co. KG, Esslingen, Germany), a syringe drive and a two-way six port injection valve fitted with a 200 μl loop (VICI AG International, Schenkon Switzerland). The output of the injection valve was addressable to all the positions of a 384 well collection plate. The reagent station consisted of hydraulically cooled (10-12° C.) aluminium segments; each manufactured to house a SBS microtiter plate footprint. Independent addressable reagent stations were housed within these sections. Where required, custom aluminium housings were used to accommodate standard laboratory plastic ware (e.g. Eppendorf tubes, Falcon tubes, etc.). As and when required the reagent reservoirs were covered and the lids contained holes through which the Teflon-coated probe could access solutions. The reagents present on the liquid handling system were: • Probe wash solution (˜150 ml; 33.3:33.3:33.3 water:propan-2-ol (P/7508/17; ThermoFisher):methanol (M/4058/17; ThermoFisher) contained in a covered reagent reservoir (390007; Porvair Sciences Ltd., Leatherhead, UK). • Assay buffer solution • HPLC grade water • 40 nM BACE1 diluted in base buffer contained in a 5 ml Eppendorf tube (0030 119.401; Eppendorf) • 400 nM BACE2 diluted in 25 mM tris (648311; Merck Biosciences, Nottingham, U.K.), pH 7.5 containing 100 mM sodium chloride and 20% glycerol (16374; USB Corp., Cleveland, Ohio, USA) contained in a 1.5 ml Eppendorf tube (0030 000.919; Eppendorf) • 1 mM substrate in 100% DMSO contained in a 1.5 ml Eppendorf tube (maintained at ambient temperature) • Two empty 1.5 ml Eppendorf tubes
(§5) The liquid handling system composed of a LISSY system (Zinsser Analytik GmbH, Frankfurt, Germany) equipped with gripper arm and single teflon-coated stainless steel probe. […]

The target in another assay is T2, β-secretase II (BACE2) (Homo sapiens, UniProt Q9Y5Z0).
T2 sequence (Q9Y5Z0 63-518): T1 sequence (Q9Y5Z0 63-518)
As to the kind of experiment: Automated (CyclOps) biochemical assay BACE2. To be noted: 37 °C, 60 min, pH 5.0; read-out: Automated assay BACE2 pIC50 (converted). Here is the method: as §3, §4, §5

recombinant BACE1 protein, sequence (P56817 46-501): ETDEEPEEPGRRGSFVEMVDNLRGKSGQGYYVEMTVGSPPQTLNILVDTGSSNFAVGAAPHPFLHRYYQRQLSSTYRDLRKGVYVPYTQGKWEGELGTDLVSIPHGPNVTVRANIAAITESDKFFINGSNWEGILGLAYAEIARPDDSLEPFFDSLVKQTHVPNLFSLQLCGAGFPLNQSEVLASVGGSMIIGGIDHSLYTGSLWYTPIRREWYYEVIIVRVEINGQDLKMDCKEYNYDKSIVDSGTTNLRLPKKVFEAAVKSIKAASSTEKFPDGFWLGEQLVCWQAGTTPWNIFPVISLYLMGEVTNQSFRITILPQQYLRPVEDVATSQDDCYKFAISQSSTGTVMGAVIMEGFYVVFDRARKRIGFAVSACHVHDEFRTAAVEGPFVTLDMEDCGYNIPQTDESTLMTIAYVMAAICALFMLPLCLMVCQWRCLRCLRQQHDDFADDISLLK
β-secretase I (BACE1), sequence (P56817 46-501): as above

As to `COc1ncc(CC2CCOCC2)c2c1C[C@]1(c3ccc(F)cc3F)N=C(N)SC[C@@H]1C2` [Compound 1], in assay [1], the IC50 is 0.759 nM. Besides, the “Biochemical FRET based assay pIC50” value in assay [2] came to 8.18; in assay [3] it was 8.52.

As to `COc1ncc(Cc2c(C)noc2C)c2c1C[C@]1(c3ccc(F)cc3F)N=C(N)SC[C@@H]1C2` [Compound 2], the IC50 in assay [1] was 2.63 nM. For the same molecule, the “Biochemical FRET based assay pIC50” value was 7.36 in assay [2] and 8.23 in assay [3].

For `COc1ncc(Cc2ccccc2C)c2c1C[C@]1(c3ccc(F)cc3F)N=C(N)SC[C@@H]1C2` [Compound 3], the results for the IC50 at β-secretase I (BACE1) and at β-secretase II (BACE2) were 22.9 nM and 355 nM, respectively.

Regarding `COc1ccc(Cc2cnc(OC)c3c2C[C@H]2CSC(N)=N[C@@]2(c2ccc(F)cc2F)C3)cc1` [Compound 5], the IC50 in assay [1] was 67.6 nM; at β-secretase I (BACE1), 49 nM; at β-secretase II (BACE2), 204 nM. The “Biochemical FRET based assay pIC50” value in assay [2] is given as 7.1; in assay [3] it was 7.64.

Consider `COc1cccc(Cc2cnc(OC)c3c2C[C@H]2CSC(N)=N[C@@]2(c2ccc(F)cc2F)C3)c1` [Compound 6], for which the figures for the IC50 on β-secretase I (BACE1) and on β-secretase II (BACE2) were 75.9 nM and 191 nM, respectively.

For `COc1ncc(Cc2cccc(Cl)c2)c2c1C[C@]1(c3ccc(F)cc3F)N=C(N)SC[C@@H]1C2` [Compound 7], the IC50 was 61.7 nM on β-secretase I (BACE1) and 110 nM at β-secretase II (BACE2).

Take `COc1cc(Cc2cnc(OC)c3c2C[C@H]2CSC(N)=N[C@@]2(c2ccc(F)cc2F)C3)cc(OC)c1` [Compound 8]: the IC50 is 195 nM at β-secretase I (BACE1) and 219 nM at β-secretase II (BACE2).

`COc1ncc(Cc2c(C)cccc2C)c2c1C[C@]1(c3ccc(F)cc3F)N=C(N)SC[C@@H]1C2` [Compound 9]: in assay [1], the IC50 is 42.7 nM. The “Biochemical FRET based assay pIC50” value in assay [2] is listed as 6.56; in assay [3], 7.99.

(Values after patent publication US20210284659A1, “INHIBITORS OF BETA SECRETASE” (Janssen Pharmaceutica NV, priority 2017, published 2021).)
